From article PMC7195640, “New Synthetic 3-Benzoyl-5-Hydroxy-2H-Chromen-2-One (LM-031) Inhibits Polyglutamine Aggregation and Promotes Neurite Outgrowth through Enhancement of CREB, NRF2, and Reduction of AMPKα in SCA17 Cell Models” (Oxidative Medicine and Cellular Longevity, 2020)

Tests used:
[1] = test system: AMPKα, pAMPKα (T172); experiment: Western blot of AMPKα and pAMPKα in TBP/Q79-GFP SH-SY5Y cells; format: cell-based, Human; conditions: induced SH-SY5Y cells
Procedure: (§1) Total proteins from TBP/Q79-GFP SH-SY5Y cells were obtained using a lysis buffer containing 50 mM Tris-HCl (pH 8.0), 150 mM NaCl, 1 mM EDTA (pH 8.0), 1 mM EGTA (pH 8.0), 0.1% SDS, 0.5% sodium deoxycholate, 1% Triton X-100, and a protease inhibitor cocktail (Sigma-Aldrich). After quantitation using a protein assay kit (Bio-Rad, Hercules, CA, USA), proteins (20 μg) were separated on 10−12% SDS-polyacrylamide gel electrophoresis and blotted onto polyvinylidene difluoride (PVDF) membranes (Sigma-Aldrich) by reverse electrophoresis. After blocking, the membrane was probed with CREB (1 : 1000; Santa Cruz Biotechnology, Santa Cruz, CA, USA), pCREB (S133) (1 : 1000; Santa Cruz Biotechnology), BCL2 (1 : 500; BioVision, Milpitas, CA, USA), GADD45B (1 : 1000; Abcam, Cambridge, MA, USA), BAX (1 : 500; BioVision), NRF2 (1 : 500; Santa Cruz Biotechnology), AMPKα (1 : 1000; Cell Signaling, Danvers, MA, USA), pAMPKα (T172) (1 : 1000; Cell Signaling), GAPDH (1 : 1000) (MDBio Inc., Taipei, Taiwan), or β-actin (1 : 5000; Millipore, Billerica, MA, USA) primary antibody at 4°C overnight. The immune complexes were detected using a horseradish peroxidase-conjugated goat anti-mouse or goat anti-rabbit IgG antibody (1 : 10000; GeneTex, Irvive, CA, USA) and a chemiluminescent substrate (Millipore).
(§2) AICAR (5-aminoimidazole-4-carboxamide 1-β-D-ribofuranoside) (Sigma-Aldrich), an analog of adenosine monophosphate (AMP), was used to stimulate AMP-dependent protein kinase (AMPK) activity. TBP/Q79-GFP SH-SY5Y cells were plated on 6-well or 24-well plates in the presence of retinoic acid as described. On day 2, the cells were pretreated with LM-031 or licochalcone A (100 nM) for 4 h; AICAR (0.1 mM) treatment and TBP/Q79-GFP induction followed. On day 8, the cells were collected for AMPKα and pAMPKα protein analysis or stained with Hoechst 33342 and analyzed for aggregation and neurite outgrowth as described.

[2] = test system: TBP/Q79-GFP-expressing SH-SY5Y cells; experiment: TBP/Q79-GFP SH-SY5Y neurite outgrowth assay (also with shRNA knockdown or AICAR); format: cell-based, Human; conditions: for increased neurite outgrowth: vs untreated
Procedure: (§3) On day 1, 2 × 10^4 of SH-SY5Y TBP/Q79-GFP cells were seeded on a 24-well plate with retinoic acid (10 μM; Sigma-Aldrich) added to induce neuronal differentiation. On day 2, the cells were treated with LM-031 or licochalcone A (100 nM) for 8 h and TBP/Q79-GFP expression was induced as described. On day 8, cells were stained with Hoechst 33342 (0.1 μg/mL) and the aggregation percentage and neurite outgrowth were assessed by high-content analysis as described. The morphologic differentiation of TBP/Q79-GFP-expressing cells was analyzed by using the Neurite Outgrowth Application Module (Molecular Devices).
(§4) To knockdown the expression of NRF2 and CREB in TBP/Q79-GFP SH-SY5Y cells, lentiviruses with short hairpin RNA (shRNA) targeting NRF2 (TRCN0000007558), CREB (TRCN0000226466), and a negative control scrambled (TRC2.Void) were obtained from the National RNAi Core Facility, Institute of Molecular Biology/Genomic Research Center, Academia Sinica, Taipei, Taiwan. On day 1, cells were plated on 6-well plates (8 × 10^5/well for protein analysis) or 24-well plates (2 × 10^4/well for neurite outgrowth analysis) in the presence of retinoic acid as described. On day 2, the cells were infected with lentivirus (multiplicity of infection: 3) in the presence of polybrene (8 μg/mL; Sigma-Aldrich) to increase infectivity. On day 3, the cells were pretreated with LM-031 or licochalcone A (100 nM) for 8 h; induction of TBP/Q79-GFP expression followed. On day 9, the cells were collected for NRF2 and CREB protein analysis or stained with Hoechst 33342 and analyzed for aggregation and neurite outgrowth as described.
as §2

[3] = test system: TBP/Q79-GFP-expressing SH-SY5Y cells; experiment: TBP/Q79-GFP SH-SY5Y aggregation assay (also with shRNA knockdown or AICAR); format: cell-based, Human; conditions: for aggregation / polyQ aggregation: SH-SY5Y cells; for reduction of aggregation: differentiated TBP/Q79-GFP SH-SY5Y cells, vs untreated
Procedure: as §3, §4, §2

[4] = MTT cytotoxicity assay in uninduced TBP/Q79-GFP 293 cells; format: cell-based; conditions: human
Procedure: (§5) Compound cytotoxicity was assessed by colorimetric assay measuring cell metabolic activity. Briefly, TBP/Q79-GFP 293 and SH-SY5Y cells were seeded on a 48-well plate (5 × 10^4/well), grown for 20 h, and treated with licochalcone A or LM compounds (0.1–100 μM). After one day, cell viability was measured based on reduction of 3,(4,5-dimethylthiazol-2-yl)-2,5-diphenyltetrazolium bromide (MTT), and the absorbance of the insoluble purple formazan product at OD 570 nm was read by a FLx800 fluorescence microplate reader (Bio-Tek, Winooski, VT, USA).

[5] = MTT cytotoxicity assay in uninduced TBP/Q79-GFP SH-SY5Y cells; format: cell-based; conditions: human
Procedure: as §5

[6] = test system: CREB, pCREB (S133); experiment: Western blot of CREB and pCREB in TBP/Q79-GFP SH-SY5Y cells; format: cell-based, Human; conditions: 100 nM; for pCREB/CREB (phosphor/total ratio), uninduced = 100%: induced SH-SY5Y cells, untreated induced 85%; for pCREB level, scrambled shRNA uninduced = 100%: scrambled shRNA-infected induced SH-SY5Y cells, untreated 81%
Procedure: as §1, §4

[7] = test system: GADD45B; experiment: Western blot of GADD45B in TBP/Q79-GFP SH-SY5Y cells; format: cell-based, Human; conditions: 100 nM, induced SH-SY5Y cells; untreated induced 66–70%
Procedure: as §1

[8] = test system: NRF2; experiment: Western blot of NRF2 in TBP/Q79-GFP SH-SY5Y cells; format: cell-based, Human; conditions: 100 nM; for NRF2 protein level, uninduced = 100%: induced SH-SY5Y cells, untreated induced 72%; for NRF2 level, scrambled shRNA uninduced = 100%: scrambled shRNA-infected induced SH-SY5Y cells, untreated 54%
Procedure: as §1, §4

[9] = test system: TBP/Q79-GFP-expressing 293 cells; experiment: TBP/Q79 293 aggregation assay (high-content analysis of GFP fluorescence); format: cell-based, Human
Procedure: GFP fluorescence was evaluated to reflect TBP aggregation in TBP/Q79-GFP-expressing 293 cells. Briefly, cells were plated on 96-well (2 × 10^4/well) dishes, grown for 24 h and treated with different concentrations of licochalcone A or LM compounds (0.1 nM−100 μM) or a positive control suberoylanilide hydroxamic acid (SAHA, 100 nM) (Cayman Chemical, Ann Arbor, MI, USA). After 8 h, doxycycline (10 μg/mL) was added to the cells for 6 days to induce TBP/Q79-GFP expression. In addition, oxaliplatin (5 μM) (Sigma-Aldrich, St Louis, MO, USA) was included for TBP/Q79-GFP aggregate accumulation via blocking cell-cycle progression. On the eighth day, the cells were stained with Hoechst 33342 (0.1 μg/mL; Sigma-Aldrich) for 30 min, and cell images were automatically recorded (excitation/emission wavelengths of 482/536 nm for GFP and 377/447 nm for Hoechst 33342) by using an ImageXpress Micro Confocal High-Content Imaging System (Molecular Devices, Sunnyvale, CA, USA). Aggregation was determined by a Transfluor technology based on GFP fluorescence intensity. To quantify aggregation, the relative aggregation level in untreated cells was set as 100%. Aggregation was measured in wells containing ≥80% viable cells.

[10] = test system: BAX; experiment: Western blot of BAX in TBP/Q79-GFP SH-SY5Y cells; format: cell-based, Human; conditions: 100 nM, induced SH-SY5Y cells; untreated induced 156%
Procedure: as §1

[11] = 100 nM compound + AICAR 0.1 mM, SH-SY5Y cells, AICAR alone 17.2 μm
[12] = 100 nM, NRF2 shRNA, SH-SY5Y cells
[13] = 100 nM, differentiated TBP/Q79-GFP SH-SY5Y cells
[14] = 100 nM, differentiated TBP/Q79-GFP SH-SY5Y cells, untreated 21.1 μm
[15] = 100 nM, no AICAR, SH-SY5Y cells, no treatment 19.6 μm
[16] = 100 nM, scrambled shRNA, SH-SY5Y cells, no treatment 21.6 μm
[17] = 100 nM compound + AICAR 0.1 mM, AICAR alone 5.2%
[18] = 100 nM, no AICAR, no treatment 4.6%

NC(=O)c1ncn([C@@H]2O[C@H](CO)[C@@H](O)[C@H]2O)c1N [AICAR, 5-aminoimidazole-4-carboxamide 1-β-D-ribofuranoside]
pAMPKα level, uninduced = 100% ([1]; AICAR 0.1 mM alone, without AICAR 134%): 160% | neurite outgrowth ([2]; AICAR 0.1 mM alone, SH-SY5Y cells, no treatment 19.6 μm): 17.2 μm | aggregation ([3]; AICAR 0.1 mM alone, no treatment 4.6%): 5.2%

COc1ccc(C(=O)/C=C/c2cc(Br)ccc2O)cc1 [LM-004]
IC50 at 24 h [4]: 45 µM | IC50 at 24 h [5]: 54 µM

COc1ccc(O)c(/C=C/C(=O)c2ccccc2)c1 [LM-006]
IC50 at 24 h [4]: 47 µM | IC50 at 24 h [5]: 56 µM

Cc1ccc(/C=C/C(=O)c2c(O)c3ccccc3oc2=O)cc1 [LM-016]
IC50 at 24 h [4]: > 100 µM | IC50 at 24 h [5]: > 100 µM

COc1cccc(/C=C/C(=O)c2ccc(O)cc2)c1O [LM-026]
IC50 at 24 h [4]: 53 µM | IC50 at 24 h [5]: 58 µM

O=C(c1ccccc1)c1cc2c(O)cccc2oc1=O [LM-031, 3-benzoyl-5-hydroxy-2H-chromen-2-one]
pAMPKα level, uninduced = 100% ([1]; 100 nM compound + AICAR 0.1 mM, AICAR alone 160%): 96% | phosphor/total ratio of AMPKα, uninduced = 100% ([1]; 100 nM, untreated induced 170%): 130% | pAMPKα level (phosphor/total ratio of AMPKα), uninduced = 100% ([1]; 100 nM, no AICAR, untreated induced 134%): 110% | pCREB/CREB (phosphor/total ratio), uninduced = 100% [6]: 110% | pCREB level, scrambled shRNA uninduced = 100% [6]: 107–112% | GADD45B protein level, uninduced = 100% [7]: 104–105% | NRF2 protein level, uninduced = 100% [8]: 96–100% | NRF2 level, scrambled shRNA uninduced = 100% [8]: 84–93% | neurite outgrowth [2, 11]: 21.6 μm | neurite outgrowth [2, 12]: 17.8–18.1 μm | increased neurite outgrowth [2, 13]: 19−22% | neurite outgrowth [2, 14]: 25.1–25.6 μm | neurite outgrowth [2, 15]: 23.0–23.6 μm | neurite outgrowth [2, 16]: 23.8–24.6 μm | IC50 at 24 h [4]: > 100 µM | IC50 at 24 h [5]: > 100 µM | TBP/Q79-GFP aggregation (untreated cells = 100%) ([9]; 10 nM–10 μM, significantly better than SAHA 100 nM (82%)): 74–76% | BAX protein level, uninduced = 100% [10]: 103% | polyQ aggregation [3, 17]: 4.0% | aggregation ([3]; 100 nM, NRF2 shRNA): 5.5% | reduction of aggregation ([3]; 100 nM): 18–20% | polyQ aggregation [3, 18]: 3.6–3.7%

O=C(CCCCCCC(=O)Nc1ccccc1)NO [SAHA, suberoylanilide hydroxamic acid, reference compound]
TBP/Q79-GFP aggregation (untreated cells = 100%) ([9]; 100 nM, Dox + oxaliplatin 6 days): 82%

C=CC(C)(C)c1cc(/C=C/C(=O)c2ccc(O)cc2)c(OC)cc1O [licochalcone A, reference compound]
pCREB/CREB (phosphor/total ratio), uninduced = 100% [6]: 110% | pCREB level, scrambled shRNA uninduced = 100% [6]: 107–112% | GADD45B protein level, uninduced = 100% [7]: 104–105% | NRF2 protein level, uninduced = 100% [8]: 96–100% | NRF2 level, scrambled shRNA uninduced = 100% [8]: 84–93% | neurite outgrowth [2, 11]: 18.4 μm | neurite outgrowth [2, 12]: 17.8–18.1 μm | increased neurite outgrowth [2, 13]: 19−22% | neurite outgrowth [2, 14]: 25.1–25.6 μm | neurite outgrowth [2, 15]: 23.0–23.6 μm | neurite outgrowth [2, 16]: 23.8–24.6 μm | IC50 at 24 h ([4]; uninduced TBP/Q79-GFP 293 cells, MTT, compounds 0.1−100 μM for 24 h, read-out: IC50 cytotoxicity): 53 µM | IC50 at 24 h ([5]; uninduced TBP/Q79-GFP SH-SY5Y cells, MTT, compounds 0.1−100 μM for 24 h, read-out: IC50 cytotoxicity): 57 µM | BAX protein level, uninduced = 100% [10]: 103% | polyQ aggregation [3, 17]: 4.9% | aggregation ([3]; 100 nM, NRF2 shRNA): 5.5% | reduction of aggregation ([3]; 100 nM): 18–20% | polyQ aggregation [3, 18]: 3.6–3.7%
